Literature values as cited in patent US20230310544A1, “ANTI-RNA VIRAL PHARMACEUTICAL COMBINATION THERAPY WITH APROTININ + anti-RNA DRUG” (ASAVI LLC, priority 2022, published 2023).

Key:
COVID-19 = COVID-19 patients
SARS-CoV-2 = conditions: human, in vivo

NC(=O)c1nc(F)c[nH]c1=O [FVP, favipiravir]
time to clinical improvement (COVID-19): ≤ 14 days | time to viral clearance (COVID-19): ≤ 7 days | Median time to elimination of SARS-CoV-2 confirmed by RT-PCR, days (IQR) (SARS-CoV-2): 4.5 days | Median time to improvement in clinical status by 2 points on the WHO-OSCI, days (IQR) (SARS-CoV-2): 14.0 days | Median time to normalization of body temperature (<37° C.), days (IQR) (SARS-CoV-2): 2.0 days
